Measured values taken from article PMC10411625, “Rationally designed stapled peptides allosterically inhibit PTBP1–RNA-binding” (Chemical Science, 2023).
Positions of bridges follow the written chain, without caps; N, C: chain ends. Non-standard residues stand in square brackets, D forms with d. Residues, ends and D or L forms follow the SMILES beside them. R8 = C=CCCCCCC[C@@](C)(N)C(=O)O; S5 = C=CCCC[C@](C)(N)C(=O)O

Tests used:
[1] = Helicity by circular dichroism spectroscopy; type: physicochemical; details: 50 µM peptide, 20 mM sodium phosphate pH 8.0, 10 mM NaF, 20 °C, triplicates, JASCO multivariate secondary structure analysis
Excerpt: (§1) For the initial design we used the i, i + 4 strategy where two (S)-pentenyl alanines (S5) were introduced in positions with three other amino acids in between. We picked three different amino acid pairs to replace with the S5 amino acids based on their orientation as observed in the NMR structures (P-2, P-3 and P-4, Fig. 2B and C).[25] To prevent the staple from disturbing the interaction between the ligand and the protein we chose positions facing away from the binding site forming the pairs Ala145/Ala149, Gln148/Gln152, and Ala149/Ala153. The three peptides were synthesized on Rink amide resin and the linear peptides were treated with a Grubbs catalyst to connect the S5 residues. To avoid a mixture of E/Z-diastereomers we reduced the alkene in the linker of the staple using a solution phase hydrogenation protocol.[43] The linear equivalent P-1 was synthesized for comparison but had to be extended on the C-terminus with an arginine residue to improve its solubility. The C-terminus is away from the binding surface and this modification was therefore not expected to have an impact on the binding affinity. The peptides were tested in a competitive fluorescence polarization assay using the RRM12 construct and RNA-2 (Fig. 2C and S2 ^†). […] As the staple is expected to stabilize the α-helical conformation we used circular dichroism (CD) spectroscopy to evaluate the helicity of the peptides. […] It is possible that although P-4 was more helical than P-3, the replacement of Gln148 with the hydrophobic linker disturbed the interaction since the side chain amide potentially interacts with the RRM1 surface. […]
performed in FP bufferPTBP1. […]
serially diluted in the same buffer. […]
a final concentration of 10 nM probe. […]
the settings mentioned previously.
Fluorescence polarization assay with SRSF1
Fluorescence polarization was
Fluorescence polarization assay with hnRNPA2/B1
For the competitive assay 10 nM
Microscale thermophoresis […]
afterwards serially diluted into FP buffer.
The data was evaluated at […]
experiments were performed in duplicates.
Circular Dichroism Spectroscopy […]

PTBP1 RRM12 = molecular target: T1, PTBP1 RRM12 (Homo sapiens, UniProt P26599); assay: Competitive fluorescence polarization assay between RRM12 and RNA-2; type: binding; details: Fig. 2C, 5 nM FAM-RNA-2, protein at 50-70 % probe binding, FP buffer pH 8.0, 20 °C, 30 min, n.b. given for inactive peptides; for Ki: read-out: Ki, competitive FP assay between RRM12 and RNA-2
T1 construct: (P57-V265); MBP (from pMAL vector); His tag; made in house; host or cells: E. coli BL21 DE3 RIL
T1 sequence (P26599 57-265): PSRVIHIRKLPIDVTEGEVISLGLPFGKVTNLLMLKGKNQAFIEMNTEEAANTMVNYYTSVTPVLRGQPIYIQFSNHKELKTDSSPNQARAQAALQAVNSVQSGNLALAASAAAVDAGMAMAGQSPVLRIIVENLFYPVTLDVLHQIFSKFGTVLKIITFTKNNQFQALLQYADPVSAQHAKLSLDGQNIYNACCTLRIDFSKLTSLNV
Excerpt: as §1
size exclusion chromatography (Superdex 75 16/60 or 26/60) with SEC buffer (50 mM Tris, 200 mM NaCl). Protein homogeneity was assessed by the size exclusion chromatogram and purity was checked by SDS-PAGE analysis to be >= 90%.
The gene encoding for SRSF1-RRM12 (1-195) was subcloned into pOPIN-His expression vector and expressed in E. coli BL21 (DE3). A pre-culture of transformed bacteria was made followed by expression in LB-Medium (100 µg/ml Ampicillin, 1 mM IPTG, 18 °C, 160 rpm overnight) after growing the culture at 37 °C, 160 rpm to an OD600 of 0.6. The harvested cells (5000 x g, 4 °C, 15 min) were resuspended in Buffer ASRSF1 (50 mM Na2HPO4 pH 8.0, 300 mM KCl, 50 mM L-Arg, 50 mM L-Gly, 1.5 mM MgCl2) supplemented with 1 mM PMSF followed by lysis through sonification. The protein was purified using a HisTrap HP 5 ml column (GE-Healthcare) using a gradient of Buffer BSRSF1 (50 mM Na2HPO4 pH 8.0, 300 mM KCl, 50 mM L-Arg, 50 mM L-Gly, 1.5 mM MgCl2, 500 mM Imidazole) followed by dialysis into wash buffer (50 mM Na2HPO4 pH 8.0, 300 mM KCl, 50 mM L-Arg, 50 mM L-Gly, 1.5 mM MgCl2, 40 mM Imidazole) and a second run of the affinity column. The protein containing fractions were afterwards dialyzed into wash buffer with tag-cleavage using His-tagged 3C protease. The cleaved construct was subsequently used for a third affinity column run collecting the unbound fraction which was dialyzed into storage buffer (20 mM Na2HPO4 pH 8.0, 150 mM KCl, 50 mM L-Arg, 50 mM L-Gly, 1.5 mM MgCl2, 0.2 mM EDTA, 1 mM TCEP).
Purification of hnRNP A2/B1
The MBP-tagged hnRNP A2/B1 construct (1-251) was expressed from a pOPIN-His-MBP vector in E. coli BL21 (DE3) RIPL cells. A pre-culture in TB (0.01% lactose, 2mM MgSO4, 100 µg/ml ampicillin, 50 µg/ml chloramphenicol) was used to inoculate the expression culture with a starting OD600 of 0.05 at 37 °C. Expression was autoinduced at 37 °C for 4 h followed by expression over night at 25 °C. Harvested cells (5000 x g, 15 min, 4 °C) were resuspended in Buffer AhnRNPA2/B1 (50 mM HEPES pH 8.0, 300 mM NACl, 20 mM Imidazole, 1 mM TCEP) supplemented with 1 mM PMSF) and lysed with a microfluidizer.
Immobilized metal affinity chromatography was performed using a HisTrap FF crude 5 ml column. The loaded protein was washed with wash buffer (50 mM HEPES pH 8.0, 300 mM NaCl, 30 mM Imidazole, […]

SMILES	Helicity by CD spectroscopy [1] [%]	Ki (PTBP1 RRM12) [µM]	Ki, competitive FP assay between RRM12 and RNA-2 (PTBP1 RRM12)
CC(=O)N[C@@H](CC(N)=O)C(=O)N[C@@H](CCC(N)=O)C(=O)N[C@@H](C)C(=O)N[C@@H](CCCNC(=N)N)C(=O)N[C@@H](C)C(=O)N[C@@H](CCC(N)=O)C(=O)N[C@@]1(C)CCCCCCCC[C@@](C)(C(=O)N[C@H](C(=O)N[C@@H](CC(N)=O)C(N)=O)C(C)C)NC(=O)[C@H](CCC(N)=O)NC(=O)[C@H](CC(C)C)NC(=O)[C@H](C)NC1=O [Peptide P-3]	57.8	156	–
CC(=O)N[C@@H](CC(N)=O)C(=O)N[C@@H](CCC(N)=O)C(=O)N[C@@H](C)C(=O)N[C@@H](CCCNC(=N)N)C(=O)N[C@@H](C)C(=O)N[C@@]1(C)CCCCCCCC[C@@](C)(C(=O)N[C@@H](C)C(=O)N[C@H](C(=O)N[C@@H](CC(N)=O)C(N)=O)C(C)C)NC(=O)[C@H](CC(C)C)NC(=O)[C@H](C)NC(=O)[C@H](C)NC1=O [Peptide P-4]	77.3	275	–
CC(=O)N[C@@H](CC(N)=O)C(=O)N[C@@H](CCC(N)=O)C(=O)N[C@@]1(C)CCCC=CCCCCCC[C@](C)(C(=O)N[C@@H](C)C(=O)N[C@H](C(=O)N[C@@H](CC(N)=O)C(N)=O)C(C)C)NC(=O)[C@H](CC(C)C)NC(=O)[C@H](C)NC(=O)[C@H](C)NC(=O)[C@H](CCC(N)=O)NC(=O)[C@H](C)NC(=O)[C@H](CCCNC(=N)N)NC1=O [Peptide P-5] (Ac-NQ[S5]RAQAAL[R8]AVN-NH2; staple 3-10)	–	24.9	–
CC(=O)N[C@@H](CC(N)=O)C(=O)N[C@@H](CCC(N)=O)C(=O)N[C@@]1(C)CCCC=CCCCC2(CCCC=CCCC[C@](C)(C(=O)N[C@H](C(=O)N[C@@H](CC(=O)O)C(N)=O)C(C)C)NC(=O)[C@H](CCC(N)=O)NC(=O)[C@H](CC(C)C)NC(=O)[C@H](C)NC2=O)NC(=O)[C@H](CCC(N)=O)NC(=O)[C@H](C)NC(=O)[C@H](CCCNC(=N)N)NC1=O (stereo partly drawn) [Peptide P-7]	–	–	n.b.
CC(=O)N[C@@H](CC(N)=O)C(=O)N[C@@H](CCC(N)=O)C(=O)N[C@@]1(C)CCCC=CCCCC2(CCCC=CCCC[C@](C)(C(=O)N[C@H](C(=O)N[C@@H](CC(N)=O)C(N)=O)C(C)C)NC(=O)[C@H](CCC(N)=O)NC(=O)[C@H](CC(C)C)NC(=O)[C@H](C)NC2=O)NC(=O)[C@H](CCC(N)=O)NC(=O)[C@H](C)NC(=O)[C@H](CCNC(=N)N)NC1=O (stereo partly drawn) [Peptide P-8]	–	–	n.b.
CC(=O)N[C@@H](CC(N)=O)C(=O)N[C@@H](CCC(N)=O)C(=O)N[C@@]1(C)CCCC=CCCCC2(CCCC=CCCC[C@](C)(C(=O)N[C@H](C(=O)N[C@@H](CC(N)=O)C(N)=O)C(C)C)NC(=O)[C@H](CCC(N)=O)NC(=O)[C@H](CC(N)=O)NC(=O)[C@H](C)NC2=O)NC(=O)[C@H](CCC(N)=O)NC(=O)[C@H](C)NC(=O)[C@H](CCCNC(=N)N)NC1=O (stereo partly drawn) [Peptide P-9]	–	–	n.b.
CC(=O)N[C@H](C(=O)N[C@@H](CCC(N)=O)C(=O)N[C@@]1(C)CCCC=CCCCC2(CCCC=CCCC[C@](C)(C(=O)N[C@H](C(=O)N[C@@H](CC(N)=O)C(N)=O)C(C)C)NC(=O)[C@H](CCC(N)=O)NC(=O)[C@H](CC(C)C)NC(=O)[C@H](C)NC2=O)NC(=O)[C@H](CCC(N)=O)NC(=O)[C@H](C)NC(=O)[C@H](CCCNC(=N)N)NC1=O)C(C)C (stereo partly drawn) [Peptide P-10]	–	22.4 ± 4.5	–
